The values that follow come from patent US20100298285A1, “Biclycloheteroaryl Compounds as P2x7 Modulators and Uses Thereof” (priority 2006, published 2010).

This experiment relates to IL-1β release, THP-1 cells. The experiment in a line: IL-1β release assay in differentiated THP-1 cells stimulated with BzATP (Example 9). It is filed as cell-based. The note with it: Homo sapiens; for inhibition at 0.3 µM: 0.3 μM compound ("+" symbols), differentiated THP-1 cells, 250 uM BzATP, read-out: IL-1β% Inhib. @ 0.3 or 0.1 μM; for IC50: THP-1 cells, BzATP 250 uM, four parameter logistic fit. An outline of the steps: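 THP-1 cells differentiated 16 h with 100 ng/mL LPS + 100 ng/mL IFN-γ, re-primed 2 h with fresh LPS 100 ng/mL, pretreated 30 min with compound, then stimulated with BzATP 250 uM final for 45 min. Supernatant IL-1β by ELISA; background-adjusted % inhibition, IC50 from four-parameter logistic fit.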

Turning to `CCCC(=O)N1CCc2c(ccc(Cl)c2NC(=O)Cc2cccc(C(F)(F)F)c2F)C1` [Compound 3187], the inhibition at 0.3 µM fell in the range of 0 to 25%.
By IC50 is commonly meant the concentration needed to halve the response being measured. Higher therefore signals lower potency. Molecule `Cc1ccc2c(c1NC(=O)Cc1ccc(C(F)(F)F)c(F)c1)CCN(C(=O)C1CC1)C2` [Compound 3469] came in with an IC50 of 52.5 nM.
In the case of `Cc1ccc2c(c1NC(=O)Cc1ccc(C(F)(F)F)c(F)c1)CCN(S(=O)(=O)c1c(F)cccc1F)C2` [Compound 3425], the IC50 is 78.5 nM.
As for `O=C(Cc1ccc(C(F)(F)F)c(F)c1)Nc1cccc2c1CCN(C(=O)[C@@H]1CCCN1)C2` [Compound 3055], the inhibition at 0.3 µM was 51 to 75% and the IC50 was determined as 182 nM.
